Columns and labels:
DYT-TOR1A MEF EVs = test: Quantitative LC-MS/MS proteomics of EVs from drug-treated DYT-TOR1A MEF cultures (ritonavir, salubrinal); type: cell-based, mouse; conditions: EV protein abundance, ritonavir (RTV)-treated DYT vs DYT
WT MEF EVs = test: Quantitative LC-MS/MS proteomics of EVs from ISRIB-treated WT MEF cultures; type: cell-based, mouse; parameters: key to ISRIB and DYT Parallel Direction / ISRIB and DYT Parallel Direction, Ctdsp1 / ISRIB and DYT Parallel Direction, Pcdh19 / ISRIB and DYT Parallel Direction, Tspan7 / ISRIB and DYT Parallel Direction, Myo1e / ISRIB and DYT Parallel Direction, Plpp3 / ISRIB and DYT Parallel Direction, Sh3bp4 / ISRIB and DYT Parallel Direction, Dnajc7 / ISRIB and DYT Parallel Direction, Drg1 / ISRIB and DYT Parallel Direction, Maea: YES = protein abundance effect similar to DYT/WT; conditions: EV protein abundance

Substance: Nes
- DYT + RTV/DYT Cohen's d (DYT-TOR1A MEF EVs): 0.37
- WT + ISRIB/WT Cohen's d (WT MEF EVs; ISRIB-treated WT vs WT): 2.29
- ISRIB and DYT Parallel Direction (WT MEF EVs; WT + ISRIB vs WT, direction compared with DYT/WT): YES

Source: US20260266848A1, “COMPOSITIONS AND METHODS FOR DIAGNOSING AND TREATING DYSTONIA” (Duke University, priority 2023, published 2026)
